Test results published in ChEMBL document CHEMBL1134578, “X-Ray crystal structures of Candida albicans dihydrofolate reductase: high resolution ternary complexes in which the dihydronicotinamide moiety of NADPH is displaced by an inhibitor” (J Med Chem, 2001).

Experiments:
[1] = Selective ratio of Human / Candida albicans was determined
Dihydrofolate reductase [2] = biological target: T1, Dihydrofolate reductase (Homo sapiens, UniProt P00374); assay: Inhibitory activity against recombinant human dihydrofolate reductase
T1 sequence (P00374 whole entry): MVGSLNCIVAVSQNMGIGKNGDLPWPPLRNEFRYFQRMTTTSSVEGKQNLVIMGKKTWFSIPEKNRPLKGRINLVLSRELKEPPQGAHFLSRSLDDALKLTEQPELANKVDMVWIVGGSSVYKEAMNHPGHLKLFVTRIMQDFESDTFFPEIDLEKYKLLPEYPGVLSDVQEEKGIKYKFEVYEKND

Dihydrofolate reductase [3] = biological target: T2, Dihydrofolate reductase (Candida albicans, UniProt P22906); assay: Inhibitory activity against Candida albicans Dihydrofolate Reductase (DHFR)
T2 sequence (P22906 whole entry): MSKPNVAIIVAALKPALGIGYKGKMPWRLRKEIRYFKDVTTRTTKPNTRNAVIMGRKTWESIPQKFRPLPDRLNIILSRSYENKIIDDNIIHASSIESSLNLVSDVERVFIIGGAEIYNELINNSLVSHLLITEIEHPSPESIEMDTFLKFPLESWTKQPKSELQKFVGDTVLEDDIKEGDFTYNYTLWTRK

SI [1]: 1.7
IC50 (Dihydrofolate reductase [2]): 6.6 nM
IC50 (Dihydrofolate reductase [3]): 4 nM
Structure (SMILES): CCC(CC)n1ccc2c3c(N)nc(N)nc3ccc21
